Measurements: paper PMC9020998 (Oxidative Medicine and Cellular Longevity, 2022)
Several values for one entry are separate records, joined by “and”; a condition that tells them apart may be missing. Equal values may be shown once. Read-outs that look alike come from different tables or passages of the source.

Key:
[1] = ABTS free radical scavenging assay; assay type: biochemical; conditions: for ABTS IC50: ABTS radical scavenging, absorbance at 734 nm
Description: The ABTS free radical scavenging antioxidant activity of the compounds was performed by using the previously reported methods. In this activity, the compounds scavenge ABTS^+ cations, and thus, a reduction in absorption is observed at 734 nm using a UV-visible spectrophotometer. Solutions of 7 mM ABTS and 2.45 mM of […] were prepared and were mixed. The mixture was stored at dark for about 16 h to get ABTS cations which appeared dark in color. The solution of ABTS cation was diluted with phosphate buffer (0.01 M having pH of 7.4); the absorbance value (0.70) was adjusted at 734 nm. To confirm the ABTS radicals' scavenging capacity, 300 μL solution of compound was mixed with 3.0 mL of ABTS. After one minute, the reduction in absorption was noted and was monitored for six minutes. The ascorbic acid was used as positive control in this activity. The experiments were repeated three times. The percent inhibitions and its IC50 values were measured as per the standard method.

[2] = DPPH free radical scavenging assay; assay type: biochemical
Description: The 1,1-diphenyl-2-picrylhydrazyl free radicals of the compounds were performed by using the reported method. Different concentrations of the compounds were mixed with DPPH methanolic solution of 0.004%. After half an hour, the absorption was determined with a double-beam UV-visible spectrophotometer at 517 nm. The same standard (ascorbic acid) was used as in the ABTS assay. The experiments were repeated three times. The percent inhibitions and IC50 values of the compounds were calculated with the standard formula.

[3] = target: 5-LOX; test: 5-Lipoxygenase assay (5-LOX); assay type: biochemical
Description: The lipoxygenase enzyme 10,000 unit/μL was used in the assay. The substrate used in this assay was linoleic acid. […] The combined mixture was incubated at 25°C for 5 min. Afterwards, linoleic acid was properly mixed with it and was kept for 5 min. […] The experiments were performed three times. The percent 5-LOX inhibitions and the IC50 values were calculated as per the standard formula [44].

[4] = target: AChE (Homo sapiens, UniProt P22303); test: biochemical
AChE, sequence (P22303 32-614): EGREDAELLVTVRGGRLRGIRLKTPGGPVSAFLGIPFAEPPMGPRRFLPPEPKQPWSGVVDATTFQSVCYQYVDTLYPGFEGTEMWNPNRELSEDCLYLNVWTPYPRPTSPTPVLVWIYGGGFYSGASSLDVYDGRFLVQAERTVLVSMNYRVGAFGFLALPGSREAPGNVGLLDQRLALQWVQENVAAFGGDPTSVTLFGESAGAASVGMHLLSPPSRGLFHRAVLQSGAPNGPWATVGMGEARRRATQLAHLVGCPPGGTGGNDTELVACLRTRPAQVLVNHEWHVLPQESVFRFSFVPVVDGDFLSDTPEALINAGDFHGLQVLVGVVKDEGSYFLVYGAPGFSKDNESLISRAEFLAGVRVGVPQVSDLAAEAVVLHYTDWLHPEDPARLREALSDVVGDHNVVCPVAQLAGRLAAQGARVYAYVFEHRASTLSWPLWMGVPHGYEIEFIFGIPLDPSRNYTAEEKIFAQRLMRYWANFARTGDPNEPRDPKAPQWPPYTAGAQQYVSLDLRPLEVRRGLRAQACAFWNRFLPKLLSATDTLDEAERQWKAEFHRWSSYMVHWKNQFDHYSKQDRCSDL
Description: (§1) The two enzymes break down their respective thiocholine iodide to produce the ion 5-thio-2-nitrobenzoate. […] The enzyme dilutions were prepared in phosphate buffer having pH of 8. Parallelly, the acetyl and butyrylthiocholine iodide solutions (0.05 mM) and DTNB were also prepared in H2O (distilled water of our laboratory) and were stored at 8°C for 15 min. […] The experiments were performed three times. The percent inhibitions and their subsequent IC50 values were calculated as per the standard formula [43].

[5] = target: BChE (Homo sapiens, UniProt P06276); test: Anticholinesterase assay (BChE); assay type: biochemical
BChE, sequence (P06276 29-602, species assumed): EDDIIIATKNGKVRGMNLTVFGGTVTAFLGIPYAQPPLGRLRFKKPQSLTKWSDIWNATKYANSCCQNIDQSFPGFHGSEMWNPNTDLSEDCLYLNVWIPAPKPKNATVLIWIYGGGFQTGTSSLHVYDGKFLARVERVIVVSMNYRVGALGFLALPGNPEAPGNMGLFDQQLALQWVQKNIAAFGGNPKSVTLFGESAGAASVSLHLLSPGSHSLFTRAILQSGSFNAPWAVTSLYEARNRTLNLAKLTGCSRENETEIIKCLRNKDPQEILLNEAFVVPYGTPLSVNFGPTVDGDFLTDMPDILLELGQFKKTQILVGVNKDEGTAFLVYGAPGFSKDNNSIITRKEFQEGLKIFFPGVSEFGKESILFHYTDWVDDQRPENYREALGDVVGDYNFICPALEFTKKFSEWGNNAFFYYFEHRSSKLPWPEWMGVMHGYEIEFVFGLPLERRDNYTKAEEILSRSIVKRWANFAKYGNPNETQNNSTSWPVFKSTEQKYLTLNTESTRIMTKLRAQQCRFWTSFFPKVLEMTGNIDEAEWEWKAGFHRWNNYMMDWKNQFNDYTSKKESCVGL
Description: as §1

[6] = target: T1, COX-2 (Homo sapiens, UniProt P35354); test: Anticyclooxygenase assay (COX-2); assay type: biochemical
T1 sequence (P35354 18-604): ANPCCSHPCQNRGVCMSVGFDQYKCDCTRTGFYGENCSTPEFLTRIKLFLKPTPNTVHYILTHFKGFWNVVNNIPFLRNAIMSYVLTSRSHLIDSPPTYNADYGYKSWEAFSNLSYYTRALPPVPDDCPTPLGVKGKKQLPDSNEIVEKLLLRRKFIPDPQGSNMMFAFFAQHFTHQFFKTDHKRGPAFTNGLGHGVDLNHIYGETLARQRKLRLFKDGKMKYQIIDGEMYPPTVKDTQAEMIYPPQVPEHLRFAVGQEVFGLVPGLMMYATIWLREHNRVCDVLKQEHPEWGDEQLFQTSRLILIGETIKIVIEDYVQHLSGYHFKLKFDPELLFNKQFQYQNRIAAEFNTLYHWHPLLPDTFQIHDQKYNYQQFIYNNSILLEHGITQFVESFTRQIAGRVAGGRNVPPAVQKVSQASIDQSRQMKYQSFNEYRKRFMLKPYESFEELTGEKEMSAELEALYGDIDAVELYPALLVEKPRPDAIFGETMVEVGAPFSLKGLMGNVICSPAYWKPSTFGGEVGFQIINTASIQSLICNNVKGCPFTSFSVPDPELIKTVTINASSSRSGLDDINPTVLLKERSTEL
Description: (§2) The COX-1 enzyme 10 μL and COX-2 300 units/mL were activated on ice for 5 min. The activation solution was accompanied by a cofactor of 50 μL containing glutathione, hematin, 1.0 mM, and TMPD in Tris-HCl buffer with pH of 8. […] The reaction was initiated when arachidonic acid 20 μL was added. The reaction was incubated for 5 min, and absorbance was measured at 570 nm as per the reported procedure. The experiments were repeated three times.

[7] = target: COX-1 (Homo sapiens, UniProt P23219); test: Anticyclooxygenase assay (COX-1); assay type: biochemical
COX-1, sequence (P23219 24-599): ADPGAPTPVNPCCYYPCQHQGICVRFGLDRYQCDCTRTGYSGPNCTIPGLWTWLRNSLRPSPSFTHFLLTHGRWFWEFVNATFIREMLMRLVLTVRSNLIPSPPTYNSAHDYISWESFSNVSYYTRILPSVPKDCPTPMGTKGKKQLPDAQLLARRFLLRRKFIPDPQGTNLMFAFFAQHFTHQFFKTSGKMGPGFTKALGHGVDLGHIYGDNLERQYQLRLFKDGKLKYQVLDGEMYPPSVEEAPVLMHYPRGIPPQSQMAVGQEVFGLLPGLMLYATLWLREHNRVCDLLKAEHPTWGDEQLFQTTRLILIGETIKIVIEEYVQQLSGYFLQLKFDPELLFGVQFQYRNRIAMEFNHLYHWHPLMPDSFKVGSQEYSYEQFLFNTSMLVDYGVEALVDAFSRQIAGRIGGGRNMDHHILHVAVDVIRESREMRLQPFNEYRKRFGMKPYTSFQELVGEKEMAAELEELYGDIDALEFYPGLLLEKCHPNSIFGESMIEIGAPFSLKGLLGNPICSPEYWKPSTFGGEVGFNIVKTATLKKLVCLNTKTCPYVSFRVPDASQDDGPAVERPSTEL
Description: as §2

[8] = target: T2, protein tyrosine phosphatase 1B (Homo sapiens, UniProt P18031); test: Protein tyrosine phosphatase 1B assay; assay type: biochemical
T2 sequence (P18031 1-435): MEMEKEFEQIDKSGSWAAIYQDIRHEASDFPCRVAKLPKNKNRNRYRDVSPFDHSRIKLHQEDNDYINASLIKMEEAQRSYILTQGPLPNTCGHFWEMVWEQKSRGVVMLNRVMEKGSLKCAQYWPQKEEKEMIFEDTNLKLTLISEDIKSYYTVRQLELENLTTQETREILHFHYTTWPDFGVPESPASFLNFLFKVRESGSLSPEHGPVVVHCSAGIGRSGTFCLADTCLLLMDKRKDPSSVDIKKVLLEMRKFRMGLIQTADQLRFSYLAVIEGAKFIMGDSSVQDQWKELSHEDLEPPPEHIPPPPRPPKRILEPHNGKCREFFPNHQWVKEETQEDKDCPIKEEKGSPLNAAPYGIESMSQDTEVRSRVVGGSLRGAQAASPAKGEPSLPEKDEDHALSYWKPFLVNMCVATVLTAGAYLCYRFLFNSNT
Description: In the PTP1B assay, 4-nitrophenylphosphate was used as substrate. The solution of dimethyl glutarate […] in buffer of pH 7 was prepared to be used in the assay. […] The solution was incubated at 37°C for 15 min. […] The experiments were performed three times. The percent inhibitions and their corresponding IC50 values were calculated as per the standard formula [46].

[9] = DPPH radical scavenging, absorbance at 517 nm
[10] = Tables 2 and 3 print no unit, text μg/mL, abstract μM
[11] = Table 2 prints no unit, text b63 μg/mL, abstract μM

## O=C1O[C@H]([C@@H](O)CO)C(O)=C1O [Ascorbic acid, reference compound]
[1]
  ABTS IC50: 0.211 µg/mL
[2]; [9]
  DPPH IC50: 0.840 µg/mL
[2]; [10]
  DPPH IC50: 0.840 ± 0.14 and 0.840 ± 0.04

## OCc1ccco1 [Compound 1, Furan-2-ylmethanol]
[1]
  ABTS IC50: 7.43 µg/mL
[2]; [9]
  DPPH IC50: 8.19 µg/mL

## CC1=C(O)C(=O)C(C)(O)O1 (centres unmarked) [Compound 2, 2,4-Dihydroxy-2,5-dimethylfuran-3(2H)-one]
[1]
  ABTS IC50: 3.005 µg/mL
[1]; at 31.25 μg/mL
  ABTS percent inhibition: 66.44
[1]; at 62.5 μg/mL
  ABTS percent inhibition: 71.47
[1]; at 125 μg/mL
  ABTS percent inhibition: 77.39
[1]; at 250 μg/mL
  ABTS percent inhibition: 83.34
[1]; at 500 μg/mL
  ABTS percent inhibition: 88.36
[2]; [9]
  DPPH IC50: 1.61 µg/mL

## C=Cc1ccc(O)cc1 [Compound 3, 4-Vinylphenol]
[1]
  ABTS IC50: 12.60 µg/mL
[2]; [9]
  DPPH IC50: 10.27 µg/mL

## COc1c(O)ccc(O)c1C [Compound 4, 2-Methoxy-3-methylbenzene-1,4-diol]
[1]
  ABTS IC50: 4.63 µg/mL
[2]; [9]
  DPPH IC50: 3.19 µg/mL

## COc1cc(C=O)ccc1O [Compound 5, 4-Hydroxy-3-methoxybenzaldehyde]
[1]
  ABTS IC50: 8.28 µg/mL
[2]; [9]
  DPPH IC50: 2.12 µg/mL

## COc1cc(/C=C2\CC(=O)N(c3ccc(O)cc3)C2=O)ccc1O [Compound 5A, (E)-3-(4-Hydroxy-3-methoxybenzylidene)-1-(4-hydroxyphenyl)pyrrolidine-2,5-dione]
[3]; Table 2 prints no unit, text b63 μg/mL, abstract and b89 μM
  5-LOX IC50: 0.71 ± 0.10
[3]; as printed in abstract and b89
  IC50: 0.71 µM
[4]
  IC50: 10.6 µM
[4]; [11]
  IC50: 32.6 µM
[4]; ratio of BChE IC50 to AChE IC50
  SI (selectivity index AChE/BChE): 1.42
[5]
  IC50: 15.1 µM
[5]; [11]
  IC50: 46.4 µM
[6]; COX-2 IC50, Table 2 prints no unit, text b63 μg/mL, abstract μM
  IC50: 3.32 µM
[6]; COX-2 IC50, as printed in abstract
  IC50: 1.08 µM
[6]; ratio of COX-1 and COX-2 IC50
  SI (COX-2 selectivity index): 12.9
[7]; COX-1 IC50, Table 2 prints no unit, text b63 μg/mL, abstract μM
  IC50: 42.8 µM
[7]; COX-1 IC50, as printed in abstract
  IC50: 13.9 µM
[2]
  IC50: 1.05 µM
[2]; [10]
  DPPH IC50: 1.05 ± 0.51

## COc1cc(/C=C2\SC(=O)NC2=O)ccc1O [Compound 5B, (Z)-5-(4-Hydroxy-3-methoxybenzylidene)thiazolidine-2,4-dione]
[8]; read-out: protein tyrosine phosphatase 1B IC50
  IC50: 53.3 µM
[8]; unit inferred, text b66 μg/mL, abstract μM, read-out: PTP1B IC50 (converted)
  IC50: 212 µM
[2]
  IC50: 1.94 µM
[2]; [10]
  DPPH IC50: 1.94 ± 1.20

## COc1cc(CC(C)=O)ccc1O [Compound 6, 1-(4-Hydroxy-3-methoxyphenyl)propan-2-one]
[1]
  ABTS IC50: 9.55 µg/mL
[2]; [9]
  DPPH IC50: 9.99 µg/mL
